Assay results as given in US20230159436A1, “APPLICATIONS OF AMIDE ANALOGS OF TRITERPENES IN CURES OF CANCER AND OTHER DISEASES” (Pacific Arrow Limited, priority 2021, published 2023).
≈ marks a conversion by molar mass, not a printed value.

System: ovarian cancer cells
Assay: Inhibiting growth of ovarian cancer cells
Format: cell-based

## C/C=C(/C)C(=O)O[C@@H]1[C@H](C)CC2C3=CCC4[C@@]5(C)CC[C@H](O[C@@H]6OC(C(=O)O)[C@@H](O)C(O[C@@H]7O[C@@H](CO)C(O)C7O)C6O[C@@H]6OC(CO)[C@H](O)C(O)C6O)C(C)(C)C5CC[C@@]4(C)[C@]3(C)[C@@H](O)[C@@H](O)[C@@]2(CO)[C@H]1OC(=O)/C(C)=C\C (stereo partly drawn) [Compound Y, 3-O-[β-D-galactopyranosyl (1→2)]-α-L-arabinofuranosy (1→3)-β-D-glucuronopyranosyl-21,22-O-diangeloyl-3β,15α,16α,21β,22α,28-hexahydroxyolean-12-ene]
  IC50: ~1.5 µg/mL (≈ 1.33 µM)
